Structures can show the parent of a compound that is named as a salt.
System: NIH-3T3/Gli reporter cells
Test: Evaluation of compound: Shh-N-induced luciferase activity in NIH-3T3/Gli reporter cells (Smo inhibitory action)
Type: cell-based
Details: 48 hr; for inhibition at 1 µM: NIH3T3, 1 μM compound, mouse Shh-N end fragment supernatant, read-out: inhibition rate (%) at 1 μM; for IC50: NIH3T3, mouse Shh-N end fragment supernatant, read-out: IC50 value (compound concentration necessary for achieving 50% of the maximum value of inhibition rate)
Method: HEK293 cells were grown in D-MEM medium (Invitrogen) containing 10% fetal bovine serum in a 10 cm dish and pcDNA3.1/mShh-N was introduced into the cells using FuGENE6 (Roche Applied Science). Thereafter, the HEK293 cells were cultured in a carbon dioxide gas incubator at 37° C. for 24 hours, and the medium was exchanged with D-MEM medium (Invitrogen) containing 2% fetal bovine serum. After culturing for 48 hr, a culture supernatant containing recombinant type mouse Shh-N end fragment was obtained by filtration using a filter ([…]).
Using D-MEM (Invitrogen) containing 10% fetal bovine serum, expression plasmid pcDNA3.1 and Gli reporter plasmid (pGL3/δ-cry promoter, 8×Gli binding site) produced by the method of Experimental Example 1 were introduced into NIH-3T3 cells grown in a 10 cm dish by the use of FuGENE6 (Roche Applied Science).
After culture for 24 hr, the cells were recovered, suspended in D-MEM medium containing 10% fetal bovine serum and supplemented with Geneticin (Life Technologies Oriental, Inc.) to a final concentration of 500 μg/ml, diluted to 10^4 cells/ml, plated on a 96 well plate, and cultured in a carbon dioxide gas incubator at 37° C. to give Geneticin resistant transformed cell line.
The obtained transformed cell line was cultured in a 96 well plate, mouse Shh-N end fragment obtained in Experimental Example 3 was added, and NIH-3T3/Gli reporter cell, which is a cell line capable of induction of luciferase expression, was selected.
NIH-3T3/Gli reporter cells cultured in D-MEM (Invitrogen) containing 10% fetal bovine serum were plated in a 96 well white plate at 1×10^4 cells/well, and cultured overnight in a carbon dioxide gas incubator at 37° C. The medium was removed, a compound (50 μl) and culture supernatant of mouse Shh-N end fragment-expressing HEK293 (D-MEM medium containing 2% fetal bovine serum, 50 μl) were added, and the cells were cultured for 48 hr in a carbon dioxide gas incubator at 37° C. Bright-Glo (Promega, 50 μl) was added, and the mixture was stirred, after which luciferase activity was measured by EnVision (PerkinElmer). The inhibition rate was calculated based on the luciferase activity of the control without addition of the compound as 100. The concentration of the compound and the inhibition rate were analyzed by PRISM3.00 (software of GraphPad), based on which the IC50 value (compound concentration necessary for achieving 50% of the maximum value of inhibition rate) of the compound was calculated.

| SMILES | inhibition at 1 µM | IC50 |
| --- | --- | --- |
| COc1c(C(=O)NC2CCN(C(=O)CO)CC2)n(C)c2c1c(=O)n(CC(=O)c1ccccc1)c1ncccc21 [Example 643, N-[1-(hydroxyacetyl)piperidin-4-yl]-3-methoxy-1-methyl-4-oxo-5-(2-oxo-2-phenylethyl)-4,5-dihydro-1H-pyrrolo[3,2-c][1,8]naphthyridine-2-carboxamide] | 100% |  |
| COc1c(C(=O)NC2CCN(C(=O)CCO)CC2)n(C)c2c1c(=O)n(CC(=O)c1ccccc1)c1ccccc21 [Example 517, N-[1-(3-hydroxypropanoyl)piperidin-4-yl]-3-methoxy-1-methyl-4-oxo-5-(2-oxo-2-phenylethyl)-4,5-dihydro-1H-pyrrolo[3,2-c]quinoline-2-carboxamide] | 100% |  |
| CCCOc1c(C(=O)NC2CCN(C(=O)CO)CC2)n(C)c2cc(CC)n(CC(=O)c3ccccc3)c(=O)c12 [Example 510, 6-ethyl-N-[1-(hydroxyacetyl)piperidin-4-yl]-1-methyl-4-oxo-5-(2-oxo-2-phenylethyl)-3-propoxy-4,5-dihydro-1H-pyrrolo[3,2-c]pyridine-2-carboxamide] | 100% |  |
| COc1c(C(=O)N(C)CCNC(C)C)sc2c1c(=O)n(CC(=O)c1ccccc1)c1ccccc21 [Example 115, 3-methoxy-N-methyl-N-{2-[(1-methylethyl)amino]ethyl}-4-oxo-5-(2-oxo-2-phenylethyl)-4,5-dihydrothieno[3,2-c]quinoline-2-carboxamide hydrochloride] | 100% | ≤ 1 µM |
| CCN(CC)CCN(C)C(=O)c1sc2c(c1OC)c(=O)n(CC1CC1)c1ccccc21 [Example 41, 5-(cyclopropylmethyl)-N-[2-(diethylamino)ethyl]-3-methoxy-N-methyl-4-oxo-4,5-dihydrothieno[3,2-c]quinoline-2-carboxamide] | 100% | ≤ 1 µM |
| CCOc1c(C(=O)NCC(C)(C)O)n(C)c2cc(C)n(CC(=O)c3ccccc3)c(=O)c12 [Example 132, 3-ethoxy-N-(2-hydroxy-2-methylpropyl)-1,6-dimethyl-4-oxo-5-(2-oxo-2-phenylethyl)-4,5-dihydro-1H-pyrrolo[3,2-c]pyridine-2-carboxamide] | 100% |  |
| CCOc1c(C(=O)NC2CCN(C(=O)CO)CC2)n(C)c2cc(C)n(CC(=O)c3ccccc3)c(=O)c12 [Example 136, 3-ethoxy-N-[1-(hydroxyacetyl)piperidin-4-yl]-1,6-dimethyl-4-oxo-5-(2-oxo-2-phenylethyl)-4,5-dihydro-1H-pyrrolo[3,2-c]pyridine-2-carboxamide] | 100% |  |
| CCc1cc2c(c(OC(C)C)c(C(=O)NC3CCN(C(=O)CO)CC3)n2C)c(=O)n1CC(=O)c1ccccc1 [Example 522, 6-ethyl-N-[1-(hydroxyacetyl)piperidin-4-yl]-1-methyl-3-(1-methylethoxy)-4-oxo-5-(2-oxo-2-phenylethyl)-4,5-dihydro-1H-pyrrolo[3,2-c]pyridine-2-carboxamide] | 100% |  |
| CCOc1c(C(=O)NC2CCN(C(=O)CO)CC2)sc2cc(CC)n(CC(=O)c3ccccc3)c(=O)c12 [Example 650, 3-ethoxy-6-ethyl-N-[1-(hydroxyacetyl)piperidin-4-yl]-4-oxo-5-(2-oxo-2-phenylethyl)-4,5-dihydrothieno[3,2-c]pyridine-2-carboxamide] | 100% |  |
| COc1c(C(=O)N[C@H]2CC[C@H](O)CC2)n(C)c2c1c(=O)n(CC(=O)c1ccccc1)c1ccccc21 [Example 118, N-(trans-4-hydroxycyclohexyl)-3-methoxy-1-methyl-4-oxo-5-(2-oxo-2-phenylethyl)-4,5-dihydro-1H-pyrrolo[3,2-c]quinoline-2-carboxamide] | 100% |  |
| COc1c(C(=O)NC2CCN(c3ccncn3)CC2)n(C)c2c1c(=O)n(CC(=O)c1ccccc1)c1ccccc21 [Example 583, 3-methoxy-1-methyl-4-oxo-5-(2-oxo-2-phenylethyl)-N-(1-pyrimidin-4-ylpiperidin-4-yl)-4,5-dihydro-1H-pyrrolo[3,2-c]quinoline-2-carboxamide] | 100% |  |
| CCN(CC)CCN(C)C(=O)c1sc2c(c1OC)c(=O)n(Cc1ccccn1)c1ccccc21 [Example 3, N-[2-(diethylamino)ethyl]-3-methoxy-N-methyl-4-oxo-5-(pyridin-2-ylmethyl)-4,5-dihydrothieno[3,2-c]quinoline-2-carboxamide ditrifluoroacetate] | 100% | ≤ 1 µM |
| COc1c(C(=O)N(C)C2CCN(C)C2)sc2c1c(=O)n(CC(=O)c1ccccc1)c1ccccc21 (stereo not drawn) [Example 16, 3-methoxy-N-methyl-N-(1-methylpyrrolidin-3-yl)-4-oxo-5-(2-oxo-2-phenylethyl)-4,5-dihydrothieno[3,2-c]quinoline-2-carboxamide trifluoroacetate] | 100% | ≤ 1 µM |
| CCN(CC)CCN(C)C(=O)c1sc2c(c1OC)c(=O)n(CC(=O)C(C)(C)C)c1ccccc21 [Example 50, N-[2-(diethylamino)ethyl]-5-(3,3-dimethyl-2-oxobutyl)-3-methoxy-N-methyl-4-oxo-4,5-dihydrothieno[3,2-c]quinoline-2-carboxamide] | 100% | ≤ 1 µM |
| CCOC(=O)Cn1c(=O)c2c(OC)c(C(=O)N(C)CCN(CC)CC)sc2c2ccccc21 [Example 53, ethyl [2-{[2-(diethylamino)ethyl](methyl)carbamoyl}-3-methoxy-4-oxothieno[3,2-c]quinolin-5(4H)-yl]acetate] | 95% | ≤ 1 µM |
| CCc1cc2c(c(OCCF)c(C(=O)NC3CCN(C(=O)CO)CC3)n2C)c(=O)n1CC(=O)c1ccccc1 [Example 142, 6-ethyl-3-(2-fluoroethoxy)-N-[1-(hydroxyacetyl)piperidin-4-yl]-1-methyl-4-oxo-5-(2-oxo-2-phenylethyl)-4,5-dihydro-1H-pyrrolo[3,2-c]pyridine-2-carboxamide] | 100% |  |
| CCc1cc2c(c(OCC(F)(F)F)c(C(=O)NC3CCN(C(=O)CO)CC3)n2C)c(=O)n1Cc1ccccc1OC [Example 658, 6-ethyl-N-[1-(hydroxyacetyl)piperidin-4-yl]-5-(2-methoxybenzyl)-1-methyl-4-oxo-3-(2,2,2-trifluoroethoxy)-4,5-dihydro-1H-pyrrolo[3,2-c]pyridine-2-carboxamide] | 100% |  |
| CCc1cc2c(c(OC)c(C(=O)NC3CCN(C(=O)CO)CC3)n2C)c(=O)n1CC(=O)c1ccccc1 [Example 131, 6-ethyl-N-[1-(hydroxyacetyl)piperidin-4-yl]-3-methoxy-1-methyl-4-oxo-5-(2-oxo-2-phenylethyl)-4,5-dihydro-1H-pyrrolo[3,2-c]pyridine-2-carboxamide] | 100% |  |
| CCOc1c(C(=O)NCCN2CCCC2)sc2c1c(=O)n(CC(=O)c1ccccc1)c1ccccc21 [Example 43, 3-ethoxy-4-oxo-5-(2-oxo-2-phenylethyl)-N-(2-pyrrolidin-1-ylethyl)-4,5-dihydrothieno[3,2-c]quinoline-2-carboxamide] | 100% | ≤ 1 µM |
| COc1c(C(=O)NC2CCN(c3ccncc3)CC2)n(C)c2c1c(=O)n(CC(=O)c1ccccc1)c1ccccc21 [Example 563, 3-methoxy-1-methyl-4-oxo-5-(2-oxo-2-phenylethyl)-N-(1-pyridin-4-ylpiperidin-4-yl)-4,5-dihydro-1H-pyrrolo[3,2-c]quinoline-2-carboxamide] | 100% |  |
| COc1c(C(=O)NC(C)CN(C)C)n(C)c2c1c(=O)n(CC(=O)c1ccccc1)c1ccccc21 (stereo not drawn) [Example 92, N-[2-(dimethylamino)-1-methylethyl]-3-methoxy-1-methyl-4-oxo-5-(2-oxo-2-phenylethyl)-4,5-dihydro-1H-pyrrolo[3,2-c]quinoline-2-carboxamide] | 100% | ≤ 1 µM |
| COc1c(C(=O)NCC(C)(C)CO)n(C)c2c1c(=O)n(CC(=O)c1ccccc1)c1ccccc21 [Example 109, N-(3-hydroxy-2,2-dimethylpropyl)-3-methoxy-1-methyl-4-oxo-5-(2-oxo-2-phenylethyl)-4,5-dihydro-1H-pyrrolo[3,2-c]quinoline-2-carboxamide] | 100% | ≤ 1 µM |
| COc1c(C(=O)N2CCCN(C)CC2)sc2c1c(=O)n(CC(=O)c1ccccc1)c1ccccc21 [Example 17, 3-methoxy-2-[(4-methyl-1,4-diazepan-1-yl)carbonyl]-5-(2-oxo-2-phenylethyl)thieno[3,2-c]quinolin-4(5H)-one trifluoroacetate] | 99% | ≤ 1 µM |
